Results on 15 compounds are retold here after patent publication US20240166639A1, “POTENT AND SELECTIVE COMPOUNDS AS SEROTONIN 1B RECEPTOR MODULATORS” (LEUKOS BIOTECH, S.L., priority 2020, published 2024).

Molecules are shown by their SMILES.

For data set [1], the target named is human 5-HT1B receptor (Homo sapiens (Human), UniProt P28222). The data set is described as follows: Competition binding in human 5-HT1B receptor. The note with it: [3H]-GR125743, Hela-5-HT1B membranes; read-out: h5-HT1B Ki. The method, then:
Serotonin 5-HT1B receptor competition binding experiments were carried out in a polypropylene 96-well plate. In each well was incubated 5 μg of membranes from Hela-5-HT1B cell line prepared in the laboratory (Lot: A001/14-11-2011, protein concentration=3179 μg/ml), 1.5 nM [^3H]-GR125743 ([…], 0.1 mCi/ml, Perkin Elmer NET1172100UC) and compounds studied and standard. Non-specific binding was determined in the presence of GR55562 10 μM (TOCRIS 1054). The reaction mixture (Vt: 250 μl/well) was incubated at 25° C. for 90 min, 200 μL was transfered to GF/C 96-well plate (Millipore, Madrid, Spain) pretreated with 0.5% of PEI and treated with binding buffer (Tris-HCl 50 mM, EDTA 1 mM, MgCl2 10 mM, pH=7.4), after was filtered and washed four times with 250 μl wash buffer (Tris-HCl 50 mM, pH=7.4), before measuring in a microplate beta scintillation counter (Microbeta Trilux, PerkinElmer, Madrid, Spain). […] From the IC50 the Ki is calculated according to the following formula: […]
(§1) Being: • IC50: inhibitory concentration, • D: real concentration of radioligand and • Kd: dissociation constant (affinity of radioligand to the receptor).

A short description of data set [2]: Healthy blood cells viability assay. Format: cell-based. The note with it: 48 h treatment, healthy peripheral blood mononuclear cells; read-out: EC50 (uM), cytotoxic capacity on healthy cells. The protocol: 0.5×10^6 peripheral blood-mononuclear blood cells per mL were cultured in completed RPM medium, supplemented with 10% FBS. Compounds were added to the medium at 0.5/1/5/10/50 μM, while controls were treated with equivalent concentration of vehicle (DMSO). Upon 48 h treatment, cells were stained with the live-dead discrimination dye 7-AAD and Hoechst 33342, the pan-hernatopoietic surface marker CD45, and acquired in a flow cytometer, with a volumetric counting. Live cells were discriminated based on a discrete FSC-SSC profile, 7-AAD negativity, dim positivity to Hoechst 33342 and CD45 positivity. EC50 was calculated with the Prism GraphPad software.

Data set [3] concerns MonoMac-1. Put plainly: Cell viability assay, AML cell line MonoMac-1. Format: cell-based. Conditions: 48 h treatment, live cells by flow cytometry. The method, then: (§2) 0.15×10^6 AML cell lines (HL-60 or MonoMac-1) per mL were cultured in completed RPMI medium, supplemented with 10% Fetal bovine serum (FBS). Compounds were added to the medium at the concentration indicated (0.1, 1 and 10 μM), while controls were treated with equivalent concentration of vehicle (DMSO). Primary validation screenings were analyzed after 72 h of treatment, EC50 was determined upon 48 h treatments. Cells were stained with the live-dead discrimination dye 7-aminoactinomycin D (7-AAD) and Hoechst 33342 and acquired in a flow cytometer, with a volumetric counting. Live cells were discriminated based on a discrete FSC-SSC profile, 7-AAD negativity and dim positivity to Hoechst 33342. EC50 was calculated with the Prism GraphPad software.
(In flow cytometry, cells or beads pass a laser one at a time.)

Data set [4] has as its system HL-60. Put plainly: Cell viability assay, AML cell line HL-60. The class given is cell-based. Conditions: 48 h treatment, live cells by flow cytometry. The protocol:
as §2

The target in data set [5] is human 5-HT2A receptor (Homo sapiens (Human), UniProt P28223). The data set is described as follows: Competition binding in human 5-HT2A receptor. The note with it: [3H]-Ketanserin, CHO-5-HT2A membranes; read-out: h5-HT2A Ki. The protocol:
Serotonin 5-HT2A receptor competition binding experiments were carried out in a polypropilene 96-well plate. In each well was incubated 80 μg of membranes from CHO-5-HT2A cell line prepared in the laboratory (protein concentration=4337 μg/ml), 1 nM [^3H]-Ketanserin (47.3 Ci/mmol, 1 mCi/ml, Perkin Elmer NET791250UC) and compounds studied and standard. Non-specific binding was determined in the presence of Methysergide 1 μM (Sigma M137). The reaction mixture (Vt: 250 μl/well) was incubated at 37° C. for 30 min, 200 μL was transfered to GF/B 96-well plate (Millipore, Madrid, Spain) pretreated with 0.5% of PEI and treated with binding buffer (Tris-HCl 50 mM, pH=7.4), after was filtered and washed six times with 250 μl wash buffer (Tris-HCl 50 mM, pH=6.6), before measuring in a microplate beta scintillation counter (Microbeta Trilux, PerkinElmer, Madrid, Spain).
The raw radioactivity data is adjusted to a logistic regression of 4 parameters using GraphPad Prism software, from the specific junction the value of IC50 is obtained. From the IC50 the Ki is calculated according to the following formula: […]
as §1

The subject of data set [6] is human acute myeloid leukemia (AML) cells. The note with it: every 2 days for 14 days, apomorphine 5 mg/kg, methiothepin 0.1 mg/kg, cited from earlier work; for AML burden in bone marrow (BM): vs vehicle.

human 5-HT1B receptor, sequence (P28222 whole entry): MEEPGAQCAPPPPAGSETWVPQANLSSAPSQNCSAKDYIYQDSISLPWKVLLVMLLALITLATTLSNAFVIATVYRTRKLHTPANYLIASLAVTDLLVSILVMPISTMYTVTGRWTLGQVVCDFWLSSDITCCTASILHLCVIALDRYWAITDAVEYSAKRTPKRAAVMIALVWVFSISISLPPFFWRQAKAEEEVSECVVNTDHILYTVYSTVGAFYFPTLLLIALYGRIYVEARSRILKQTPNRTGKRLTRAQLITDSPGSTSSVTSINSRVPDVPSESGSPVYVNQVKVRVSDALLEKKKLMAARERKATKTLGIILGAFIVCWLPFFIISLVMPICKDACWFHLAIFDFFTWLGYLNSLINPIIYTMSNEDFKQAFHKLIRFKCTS
human 5-HT2A receptor, sequence (P28223 whole entry): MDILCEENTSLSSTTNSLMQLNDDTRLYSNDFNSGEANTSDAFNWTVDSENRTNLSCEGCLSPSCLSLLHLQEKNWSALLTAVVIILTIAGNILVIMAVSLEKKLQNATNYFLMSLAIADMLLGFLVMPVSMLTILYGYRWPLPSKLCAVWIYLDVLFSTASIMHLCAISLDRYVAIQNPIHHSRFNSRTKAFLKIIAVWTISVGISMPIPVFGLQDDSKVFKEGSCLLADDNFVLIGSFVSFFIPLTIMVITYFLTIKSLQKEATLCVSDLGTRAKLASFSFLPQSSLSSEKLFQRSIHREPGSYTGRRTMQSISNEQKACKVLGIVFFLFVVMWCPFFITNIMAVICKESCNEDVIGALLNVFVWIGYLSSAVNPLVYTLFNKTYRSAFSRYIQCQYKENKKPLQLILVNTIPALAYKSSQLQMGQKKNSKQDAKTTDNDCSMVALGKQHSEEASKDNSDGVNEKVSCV

For the compound `Cc1nc(-c2ccc(-c3ccc(C(=O)Nc4cc(OCCN(C)C)c(C#N)cn4)cc3)c(C3CC3)c2)no1` [Example 21, N-(5-cyano-4-(2-(dimethylamino)ethoxy)pyridin-2-yl)-2′-cyclopropyl-4′-(5-methyl-1,2,4-oxadiazol-3-yl)-[1,1′-biphenyl]-4-carboxamide], the Ki in data set [1] was determined as 0.0063 µM; in data set [5] it was 3.5 µM. The EC50 at 48 h in data set [2] is more than 50 µM. The EC50 in data set [3] (Mono-Mac-1) was found to be 3.32 µM; in data set [4] (Homo sapiens, HL-60) it was 3.66 µM.
`COc1cc(-c2noc(C)n2)ccc1-c1ccc(C(=O)Nc2cc(OCCN(C)C)c(Br)cn2)cn1` [Example 43, N-(5-bromo-4-(2-(dimethylamino)ethoxy)pyridin-2-yl)-6-(2-methoxy-4-(5-methyl-1,2,4-oxadiazol-3-yl)phenyl)nicotinamide]: the Ki is 0.0015 µM in data set [1] and 2 µM in data set [5]. Moreover, the EC50 in data set [3] (Mono-Mac-1) amounted to 1.9 µM; in data set [4] (Homo sapiens, HL-60), 2.52 µM.
For `Cc1nc(-c2ccc(-c3ccc(C(=O)Nc4cc(OCCN(C)C)c(C#N)cn4)cn3)c(C3CC3)c2)no1` [Example 45, N-(5-cyano-4-(2-(dimethylamino)ethoxy)pyridin-2-yl)-6-(2-cyclopropyl-4-(5-methyl-1,2,4-oxadiazol-3-yl)phenyl)nicotinamide], the results for the Ki in data set [1] and in data set [5] were 0.0259 µM and more than 10 µM, respectively. The EC50 at 48 h in data set [2] was more than 50 µM. Further, the EC50 stood at 1.15 µM in data set [3] (Mono-Mac-1) and 1.76 µM in data set [4] (Homo sapiens, HL-60).
As for `Cc1nc(-c2ccc(-c3ccc(C(=O)Nc4cc(OCCN(C)C)c(Br)cn4)cn3)c(F)c2)no1` [Example 40, N-(5-bromo-4-(2-(dimethylamino)ethoxy)pyridin-2-yl)-6-(2-fluoro-4-(5-methyl-1,2,4-oxadiazol-3-yl)phenyl)nicotinamide], the Ki was 0.0035 µM in data set [1] and 1.5 µM in data set [5]. Besides, the EC50 in data set [3] (Mono-Mac-1) is 0.57 µM; in data set [4] (Homo sapiens, HL-60), 1.01 µM.
For `Cc1nc(-c2ccc(-c3ccc(C(=O)Nc4ccc(C#N)c(OCCN(C)C)c4)cn3)c(C3CC3)c2)no1` [Example 7, N-(4-cyano-3-(2-(dimethylamino)ethoxy)phenyl)-6-(2-cyclopropyl-4-(5-methyl-1,2,4-oxadiazol-3-yl)phenyl)nicotinamide], the Ki turned out to be 0.0097 µM in data set [1] and 2.5 µM in data set [5]. For the same compound, the EC50 at 48 h in data set [2] was 50 µM. Moreover, the EC50 in data set [3] (Mono-Mac-1) turned out to be 0.79 µM; in data set [4] (Homo sapiens, HL-60) it was 0.65 µM.
On the same counts, the results for `Cc1nc(-c2ccc(-c3ccc(C(=O)Nc4cc(OCCN(C)C)c(C#N)cn4)cn3)c(Cl)c2)no1` [Example 47, 6-(2-chloro-4-(5-methyl-1,2,4-oxadiazol-3-yl)phenyl)-N-(5-cyano-4-(2 (dimethylamino)ethoxy)pyridin-2-yl)nicotinamide] are 0.0097 µM, more than 10 µM, 25 µM, 4.12 µM and 6.63 µM.
`Cc1nc(-c2ccc(-c3ccc(C(=O)Nc4ncc(C#N)c(OCCN(C)C)n4)cc3)c(Cl)c2)no1` [Example 38, 2′-chloro-N-(5-cyano-4-(2-(dimethylamino)ethoxy)pyrimidin-2-yl)-4′-(5-methyl-1,2,4-oxadiazol-3-yl)-[1,1′-biphenyl]-4-carboxamide]: the Ki in data set [1] is 0.0165 µM; in data set [5] it was more than 10 µM. Also, the EC50 at 48 h in data set [2] worked out at 50 µM.
For `Cc1nc(-c2ccc(-c3ccc(C(=O)Nc4cc(OCCN(C)C)c(C#N)cn4)cc3)c(Cl)c2)no1` [Example 23, 2′-chloro-N-(5-cyano-4-(2-(dimethylamino)ethoxy)pyridin-2-yl)-4′-(5-methyl-1,2,4-oxadiazol-3-yl)-[1,1′-biphenyl]-4-carboxamide], the Ki in data set [1] came out at 0.0079 µM; in data set [5] it was 3 µM. Also, the EC50 at 48 h in data set [2] was more than 50 µM. For the same compound, the EC50 in data set [3] (Mono-Mac-1) came out at 0.54 µM; in data set [4] (Homo sapiens, HL-60), 0.97 µM.
Consider `COc1cc(-c2noc(C)n2)ccc1-c1ccc(C(=O)Nc2cc(OCCN(C)C)c(C#N)cn2)cn1` [Example 49, N-(5-cyano-4-(2-(dimethyiamino)ethoxy)pyridin-2-yl)-6-(2-methoxy-4-(5-methyl-1,2,4-oxadiazol-3-yl)phenyl)nicotinamide], for which the inhibitory constant (Ki) in data set [1] is 0.126 µM; in data set [5], more than 10 µM. Also, the EC50 was found to be 4.17 µM in data set [3] and 1.16 µM in data set [4].
For `Cc1nc(-c2ccc(-c3ccc(C(=O)Nc4ccc(C#N)c(OCCN(C)C)n4)cn3)c(C3CC3)c2)no1` [Example 54, N-(5-cyano-6-(2-(dimethylamino)ethoxy)pyridin-2-yl)-6-(2-cyclopropyl-4-(5-methyl-1,2,4-oxadiazol-3-yl)phenyl)nicotinamide], the figures for the Ki in data set [1] and in data set [5] were 0.0483 µM and more than 10 µM, respectively. Further, the concentration giving a half-maximal response (EC50) in data set [3] (Mono-Mac-1) turned out to be 1.04 µM; in data set [4] (Homo sapiens, HL-60), 1.07 µM.
On to `CN1CCc2cccc3c2[C@H]1Cc1ccc(O)c(O)c1-3` [Apomorphine, reference compound], for which the results for the Ki in data set [1] and in data set [5] were 1.76 µM and 0.00692 µM, respectively. Also, the “clonogenic capacity of engrafted AML cells” value in data set [6] is recorded as “impaired”. Besides, in data set [6], the “AML burden in bone marrow (BM)” value is recorded as “significant reduction”. Further, the EC50 worked out at 11.6 µM in data set [3] (Mono-Mac-1) and 4.88 µM in data set [4] (Homo sapiens, HL-60).
Regarding `Cc1nc(-c2ccc(-c3ccc(C(=O)Nc4ncc(C#N)c(OCCN(C)C)n4)cc3)c(C3CC3)c2)no1` [Example 36, N-(5-cyano-4-(2-(dimethylamino)ethoxy)pyrimidin-2-yl)-2′-cyclopropyl-4′-(5-methyl-1,2,4-oxadiazol-3-yl)-[1,1′-biphenyl]-4-carboxamide], the EC50 at 48 h in data set [2] amounted to 25 µM. Besides, the concentration giving a half-maximal response (EC50) in data set [3] (Mono-Mac-1) was found to be 7.37 µM; in data set [4] (Homo sapiens, HL-60) it was 5.87 µM.
Turning to `Cc1nc(-c2ccc(-c3ccc(NC(=O)c4ccc(Br)c(OCCN(C)C)c4)cn3)c(F)c2)no1` [Example 65, 4-bromo-3-(2-(dimethylamino)ethoxy)-N-(6-(2-fluoro-4-(5-methyl-1,2,4-oxadiazol-3-yl)phenyl)pyridin-3-yl)benzamide], the figures for the Ki in data set [1] and in data set [5] were 0.0005 µM and 1 µM, respectively. Also, the EC50 was determined as 1.33 µM in data set [3] (Mono-Mac-1) and 0.93 µM in data set [4] (Homo sapiens, HL-60).
As for `CSc1ccc2c(c1)C(N1CCN(C)CC1)Cc1ccccc1S2` (centres unmarked) [methiothepin], in data set [6], the “clonogenic capacity of engrafted AML cells” value is “impaired” and the “AML burden in bone marrow (BM)” value is “significant reduction”.
Take `Cc1nc(-c2ccc(-c3ccc(C(=O)Nc4cc(OCCN(C)C)c(Br)cn4)cn3)c(C3CC3)c2)no1` [Example 39, N-(5-bromo-4-(2-(dimethylamino)ethoxy)pyridin-2-yl)-6-(2-cyclopropyl-4-(5-methyl-1,2,4-oxadiazol-3-yl)phenyl)nicotinamide]: in data set [2], the EC50 at 48 h turned out to be 50 µM. The EC50 in data set [3] (Mono-Mac-1) turned out to be 2.6 µM; in data set [4] (Homo sapiens, HL-60), 3.45 µM.

By Ki is commonly meant a measure of affinity in units of concentration, obtained from inhibition or displacement. The EC50 is the concentration needed to bring the measured effect to its halfway point.
